PMC8878468, “Image-Based Annotation of Chemogenomic Libraries for Phenotypic Screening” (Molecules, 2022)
Read-outs that look alike come from different tables or passages of the source. Each block holds one compound with its values, some of them ahead of it.

Tests used:
HCT116-FUCCI cells [1] = test system: HCT116-FUCCI cells; set-up: method as in per compound as in column reference of Table S3; settings: literature annotation in Table S3; ref per compound as in Table S3; cited from earlier work
HCT116-FUCCI cells [2] = experiment: FUCCI cell cycle assay with nuclear gating; format: cell-based, human; settings: for change of FUCCI nuclei population in comparison to DMSO / main nuclei color: 10 µM; for change of FUCCI nuclei population in comparison to DMSO: up to 70 h; for IC50: Homo sapiens, average and SEM of two independent experiments; for main nuclei color: Table S3
Method: For generation of a stable cell line, including the florescent ubiquitination-base cell cycle indicator FUCCI, the plasmid-based transposon system Sleeping Beauty was used. Vector (pSBbi_Fucci) and the Transposase SB100X have been described previously. […] Two days after transfection, cells were selected over 10 days using puromycin (1 µg/mL) and cultivated afterwards for two more weeks in McCoys 5A plus L-Glutamine (Gibco) supplemented by 10% FBS (Gibco) and Penicillin/Streptomycin (Gibco).
Fluorescence and cellular shape were measured before and after compound treatment for 72 h every 12 h using the CQ1 high-content confocal microscope (Yokogawa). […]
Image analysis was performed using the CellPathfinder software (Yokogawa). Segmentation of cells was performed as described earlier. First, the cells are classified in Hoechst High Intensity Objects or Normal Intensity Objects (Supplementary Table S7). All normal gated cells are further classified in healthy, fragmented or pyknosed nuclei (Supplementary Table S7). […] Total cell count was normalized against total cell count of cells treated with 0.1% DMSO.

U2OS cells [3] = experiment: cells; settings: Homo sapiens
U2OS cells [4] = experiment: Multiplex high-content protocol (nuclei gating, tubulin, mitochondrial mass, membrane permeability); format: cell-based, human; settings: U2OS
Method: Using the CQ1 high-content confocal microscope (Yokogawa), cellular shape and fluorescence was measured before and 12 h as well as 24 h after compound treatment. All compounds were diluted in DMSO to a concentration of 10 mM.
The rather large spacing distance was used to create a robust readout, compensating potential plate variations and enabling automated screening without the use of autofocus. The overlap of the fluorescence emission spectra of the dyes was neglectable for all but the MitoTracker Red and Annexin V Alexa Fluor 680 (Supplementary Figure S9).
All images were analyzed using the CellPathfinder software (Yokogawa). Segmentation of cells was performed as described earlier. First, the cells are classified in Hoechst High Intensity Objects or Normal Intensity Objects (Supplementary Table S7). All normal gated cells are further classified in healthy, fragmented or pyknosed nuclei (Supplementary Table S7). The pyknosed cells are gated in mitotic or apoptotic cells using seven features for the cell body and five features for the cell nuclei according to their Annexin V staining intensity (Supplementary Table S7). All cells that were classified as including a healthy nucleus are further gated into three phenotypic classes. […] Growth rate was calculated against non-treated cells and cells treated with DMSO 0.1% [61].

U2OS cells [5] = settings: High-Via Extend protocol, cell line and unit inferred
FGFR = settings: cited from earlier work
[6] = source not stated; cited from earlier work
[7] = read-out: IC 50 14 h, Table S2, 14 h
[8] = read-out: IC 50 26 h, Table S2, 26 h
[9] = read-out: IC 50 42 h, Table S2, 42 h
[10] = read-out: IC 50 56 h, Table S2, 56 h

Compound: CC[C@@]1(O)C(=O)OCc2c1cc1n(c2=O)Cc2cc3ccccc3nc2-1 [camptothecin]
known cell cycle effect (HCT116-FUCCI cells [1]): mitotic arrest
change of FUCCI nuclei population in comparison to DMSO (HCT116-FUCCI cells [2]): increase in green nuclei
IC50 (U2OS cells [3]; 14 h, read-out: IC 50 14 h): 2600 nM
IC50 (U2OS cells [3]; 14 h, read-out: IC50, normalized healthy cell count): 4700 nM
IC50 (U2OS cells [3]; 14 h, read-out: IC50, normalized healthy nuclear count): 6100 nM
IC50 (U2OS cells [3]; 26 h, read-out: IC 50 26 h): 2300 nM
IC50 (U2OS cells [3]; 28 h, read-out: IC50, normalized healthy cell count): 1800 nM
IC50 (U2OS cells [3]; 28 h, read-out: IC50, normalized healthy nuclear count): 1700 nM
IC50 (U2OS cells [3]; 42 h, read-out: IC 50 42 h): 1500 nM
IC50 (U2OS cells [3]; 42 h, read-out: IC50, normalized healthy cell count): 290 nM
IC50 (U2OS cells [3]; 42 h, read-out: IC50, normalized healthy nuclear count): 438 nM
IC50 (U2OS cells [3]; 56 h, read-out: IC 50 56 h): 1100 nM
IC50 (U2OS cells [3]; 56 h, read-out: IC50, normalized healthy cell count): 50.9 nM
IC50 (U2OS cells [3]; 56 h, read-out: IC50, normalized healthy nuclear count): 43.4 nM
Hoechst High Intensity Objects (Hoechst intensity compared to normal nuclei) (U2OS cells [4]; 1 µM): more than 50%
healthy nuclei (healthy cells) (U2OS cells [4]; 10 µM, 24 h): less than 50%
Hoechst High Intensity Objects (U2OS cells [4]; 10 µM, after 24 h, in one of two biological replicates): > 30%

IC50 (U2OS cells [5]; [7]): 800 nM
IC50 (U2OS cells [5]; [8]): 800 nM
IC50 (U2OS cells [5]; [9]): 700 nM
IC50 (U2OS cells [5]; [10]): 700 nM
Compound: CCC(=O)N1CCN(c2ccc(-n3c(=O)ccc4cnc5ccc(-c6cnc7ccccc7c6)cc5c43)cc2C(F)(F)F)CC1 [torin]

Compound: Cc1sc2c(c1C)C(c1ccc(Cl)cc1)=N[C@@H](CC(=O)OC(C)(C)C)c1nnc(C)n1-2 [JQ1]
IC50 (U2OS cells [5]; [7]): 9700 nM
IC50 (U2OS cells [5]; [8]): 9000 nM
IC50 (U2OS cells [5]; [9]): 13700 nM
IC50 (U2OS cells [5]; [10]): 200 nM

IC50 (U2OS cells [3]; 14 h, read-out: IC 50 14 h): 2100 nM
IC50 (U2OS cells [3]; 26 h, read-out: IC 50 26 h): 800 nM
IC50 (U2OS cells [3]; 42 h, read-out: IC 50 42 h): 600 nM
IC50 (U2OS cells [3]; 56 h, read-out: IC 50 56 h): 500 nM
Compound: CNC(=O)c1nn(C)c2c1C(C)(C)Cc1cnc(Nc3ccc(N4CCN(C)CC4)cc3)nc1-2 [milciclib]
known cell cycle effect (HCT116-FUCCI cells [1]): G1 cell cy cle arrest
cell cycle population distribution of healthy gated nuclei (HCT116-FUCCI cells [2]; 1 µM, after 18 h, versus DMSO): higher population of ‘red’ nuclei
IC50 (HCT116-FUCCI cells [2]; 18h, read-out: IC50(18h), normalized healthy cell count): 5990 ± 260 nM
IC50 (HCT116-FUCCI cells [2]; 32h, read-out: IC50(32h), normalized healthy cell count): 1990 ± 350 nM
IC50 (HCT116-FUCCI cells [2]; 45h, read-out: IC50(45h), normalized healthy cell count): 850 ± 90 nM
IC50 (HCT116-FUCCI cells [2]; 59h, read-out: IC50(59h), normalized healthy cell count): 570 ± 50 nM
increase in mitochondrial mass in comparison to DMSO (U2OS cells [4]; 10 µM, 24 h, healthy nuclei only): over 60%

Compound: N#Cc1c2nc3ccccc3nc2n2ccc(NC(=O)c3cccs3)cc12 [HI-TOPK-032]
known cell cycle effect (HCT116-FUCCI cells [1]): during mitosis, G1 cell
main nuclei color (HCT116-FUCCI cells [2]): yellow
change of FUCCI nuclei population in comparison to DMSO (HCT116-FUCCI cells [2]): increased number of cells with yellow nuclei

Compound: O=c1cc(-c2ccccc2)oc2c1ccc1ccccc12 [α-naphthoflavone]
known cell cycle effect (HCT116-FUCCI cells [1]): G1 cell cy cle arrest
change of FUCCI nuclei population in comparison to DMSO (HCT116-FUCCI cells [2]): increase in red nuclei

IC50 (U2OS cells [3]; 14 h, read-out: IC 50 14 h): > 2000 nM
IC50 (U2OS cells [3]; 26 h, read-out: IC 50 26 h): 100 nM
IC50 (U2OS cells [3]; 42 h, read-out: IC 50 42 h): 60 nM
IC50 (U2OS cells [3]; 56 h, read-out: IC 50 56 h): 50 nM
Compound: CC(=O)O[C@H]1C(=O)[C@@]2(C)[C@H]([C@H](OC(=O)c3ccccc3)[C@]3(O)C[C@H](OC(=O)[C@H](O)[C@@H](NC(=O)c4ccccc4)c4ccccc4)C(C)=C1C3(C)C)[C@]1(OC(C)=O)CO[C@@H]1C[C@@H]2O [paclitaxel]
known cell cycle effect (HCT116-FUCCI cells [1]): concentration-dependent
change of FUCCI nuclei population in comparison to DMSO (HCT116-FUCCI cells [2]): increase in red nuclei

Compound: CN1CCN(C(=O)C(C)(C)c2ccc(C(=O)Nc3cn4cc(-c5ccncc5)ccc4n3)cc2)CC1 [T3-CLK]
known cell cycle effect (HCT116-FUCCI cells [1]): G2/M cell cycle arrest
main nuclei color (HCT116-FUCCI cells [2]): green

compound precipitation in assay (U2OS cells [4]; 1 µM): precipitated
Compound: CCN(CC)CCCCNc1ncc2cc(-c3cc(OC)cc(OC)c3)c(NC(=O)NC(C)(C)C)nc2n1 [PD173074]
cellular activity (FGFR): less than 25 nM
logP [6]: 4.7
Hoechst High Intensity Objects (Hoechst intensity compared to normal nuclei) (U2OS cells [4]; 1 µM): more than 50%

Compound: COc1cccc2c1C(=O)c1c(O)c3c(c(O)c1C2=O)C[C@@](O)(C(C)=O)C[C@@H]3O[C@H]1C[C@H](N)[C@H](O)[C@H](C)O1 [daunorubicin]
known cell cycle effect (HCT116-FUCCI cells [1]): breaks, cell cycle arrest
change of FUCCI nuclei population in comparison to DMSO (HCT116-FUCCI cells [2]): More yellow nuclei
healthy nuclei (healthy cells) (U2OS cells [4]; 10 µM, 24 h): less than 50%

Compound: COc1cccc2c1C(=O)c1c(O)c3c(c(O)c1C2=O)C[C@@](O)(C(=O)CO)C[C@@H]3O[C@H]1C[C@H](N)[C@H](O)[C@H](C)O1 [doxorubicin]
known cell cycle effect (HCT116-FUCCI cells [1]): G0/G1 cell cycle arrest
change of FUCCI nuclei population in comparison to DMSO (HCT116-FUCCI cells [2]): More yellow nuclei
